Reference: the supplement of paper PMC11061612

What was measured:
MK-2206 = compound: NC1(c2ccc(-c3nc4ccn5c(=O)[nH]nc5c4cc3-c3ccccc3)cc2)CCC1 [MK-2206]; conditions: max 10 µM
In short: (§1)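 Cancer cell lines were seeded in 1536-well plates in 7.5 μl DMEM/F12 or RPMI with 10% FBS, held 24 hours at 37°C and 5% CO2, then dosed for 72 hours (final DMSO typically 0.2%). Viability was read by CellTiter-Glo 2.0 luminescence and scaled between blank-well and DMSO-well means. The single-agent IC50 comes from dose responses fitted to a two-parameter logistic curve with a non-linear mixed effects model.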

AZD2811 = compound: CCN(CCO)CCCOc1ccc2c(Nc3cc(CC(=O)Nc4cccc(F)c4)[nH]n3)ncnc2c1 [AZD2811]; conditions: max 1 µM
In short: as §1

AZD5991 = compound: Cc1c2c(nn1C)CSCc1cc(n(C)n1)CSc1cc(c3ccccc3c1)OCCCc1c(C(=O)O)n(C)c3c-2c(Cl)ccc13 [AZD5991]; conditions: max 1 µM
In short: as §1

Gefitinib = compound: COc1cc2ncnc(Nc3ccc(F)c(Cl)c3)c2cc1OCCCN1CCOCC1 [Gefitinib]; conditions: max 10 µM
In short: as §1

AZD5153 = compound: COc1nnc2ccc(N3CCC(c4ccc(OCCN5CCN(C)C(=O)[C@H]5C)cc4)CC3)nn12 [AZD5153]; conditions: max 1 µM
In short: as §1

SN-38 = compound: CCc1c2c(nc3ccc(O)cc13)-c1cc3c(c(=O)n1C2)COC(=O)[C@]3(O)CC [SN-38]; conditions: max 0.3 µM
In short: as §1

Lapatinib = compound: CS(=O)(=O)CCNCc1ccc(-c2ccc3ncnc(Nc4ccc(OCc5cccc(F)c5)c(Cl)c4)c3c2)o1 [Lapatinib]; conditions: max 10 µM
In short: as §1

Prexasertib = compound: COc1cccc(OCCCN)c1-c1cc(Nc2cnc(C#N)cn2)n[nH]1 [Prexasertib]; conditions: max 1 µM
In short: as §1

Doxorubicin = compound: COc1cccc2c1C(=O)c1c(O)c3c(c(O)c1C2=O)C[C@@](O)(C(=O)CO)C[C@@H]3O[C@H]1C[C@H](N)[C@H](O)[C@H](C)O1 [Doxorubicin]; conditions: max 1 µM
In short: as §1

AZD7648 = compound: Cc1cc2ncnn2cc1Nc1ncc2c(n1)n(C1CCOCC1)c(=O)n2C [AZD7648]; conditions: max 10 µM
In short: as §1

[1] = compound: O=C(Nc1ccc2[nH]nc(-c3ccncc3)c2c1)[C@@H]1CCN(CC(=O)N2CCN(c3ccc(-c4ncccn4)cc3)CC2)C1; conditions: max 5 µM
In short: as §1

SRA737 = compound: N#Cc1cnc(Nc2cc(NC[C@H]3CNCCO3)c(C(F)(F)F)cn2)cn1 [SRA737]; conditions: max 10 µM
In short: as §1

Gemcitabine = compound: Nc1ccn([C@@H]2O[C@H](CO)[C@@H](O)C2(F)F)c(=O)n1 [Gemcitabine]; conditions: max 0.3 µM
In short: as §1

5-Fluorouracil = compound: O=c1[nH]cc(F)c(=O)[nH]1 [5-Fluorouracil]; conditions: max 20 µM
In short: as §1

Venetoclax = compound: CC1(C)CCC(CN2CCN(c3ccc(C(=O)NS(=O)(=O)c4ccc(NCC5CCOCC5)c([N+](=O)[O-])c4)c(Oc4cnc5[nH]ccc5c4)c3)CC2)=C(c2ccc(Cl)cc2)C1 [Venetoclax]; conditions: max 1 µM
In short: as §1

Dasatinib = compound: CC1=C(C(=CC=C1)Cl)NC(=O)C2=CN=C(S2)NC3=CC(=NC(=N3)C)N4CCN(CC4)CCO [Dasatinib]; conditions: max 2 µM
In short: as §1

Crizotinib = compound: C[C@@H](Oc1cc(-c2cnn(C3CCNCC3)c2)cnc1N)c1c(Cl)ccc(F)c1Cl [Crizotinib]; conditions: max 10 µM
In short: as §1

Paclitaxel = compound: CC(=O)O[C@H]1C(=O)[C@@]2(C)[C@H]([C@H](OC(=O)c3ccccc3)[C@]3(O)C[C@H](OC(=O)[C@H](O)[C@@H](NC(=O)c4ccccc4)c4ccccc4)C(C)=C1C3(C)C)[C@]1(OC(C)=O)CO[C@@H]1C[C@@H]2O [Paclitaxel]; conditions: max 3 µM
In short: as §1

AZD6738 = compound: C[C@@H]1COCCN1C2=NC(=NC(=C2)C3(CC3)[S@](=N)(=O)C)C4=C5C=CNC5=NC=C4 [AZD6738]; conditions: max 10 µM
In short: as §1

Taselisib = compound: Cc1nc(-c2cn3c(n2)-c2ccc(-c4cnn(C(C)(C)C(N)=O)c4)cc2OCC3)n(C(C)C)n1 [Taselisib]; conditions: max 10 µM
In short: as §1

Etoposide = compound: COc1cc([C@@H]2c3cc4c(cc3[C@@H](O[C@@H]3O[C@@H]5CO[C@@H](C)O[C@H]5[C@H](O)[C@H]3O)[C@H]3COC(=O)[C@H]23)OCO4)cc(OC)c1O [Etoposide]; conditions: max 10 µM
In short: as §1

AZD4320 = compound: CN(CC[C@H](CSC1=CC=CC=C1)NC2=C(C=C(C=C2)S(=O)(=O)NC(=O)C3=CC=C(C=C3)N4CCC(CC4)[C@H](C5=CC=CC=C5C6=CC=C(C=C6)Cl)O)S(=O)(=O)C(F)(F)F)CCO [AZD4320]; conditions: max 1 µM
In short: as §1

AZD0156 = compound: CN(C)CCCOc1ccc(-c2ccc3ncc4c(c3c2)n(C2CCOCC2)c(=O)n4C)cn1 [AZD0156]; conditions: max 3 µM
In short: as §1

Savolitinib = compound: C[C@@H](c1ccc2nccn2c1)n1nnc2ncc(-c3cnn(C)c3)nc21 [Savolitinib]; conditions: max 1 µM
In short: as §1

Selumetinib = compound: Cn1cnc2c(F)c(Nc3ccc(Br)cc3Cl)c(C(=O)NOCCO)cc21 [Selumetinib]; conditions: max 10 µM
In short: as §1

AZD5363 = compound: C1CN(CCC1(C(=O)N[C@@H](CCO)C2=CC=C(C=C2)Cl)N)C3=NC=NC4=C3C=CN4 [AZD5363]; conditions: max 10 µM
In short: as §1

Alisertib = compound: COc1cc(Nc2ncc3c(n2)-c2ccc(Cl)cc2C(c2c(F)cccc2OC)=NC3)ccc1C(=O)O [Alisertib]; conditions: max 10 µM
In short: as §1

SG3199 = compound: CC1=CN2[C@@H](C1)C=NC3=CC(=C(C=C3C2=O)OC)OCCCCCOC4=C(C=C5C(=C4)N=C[C@@H]6CC(=CN6C5=O)C)OC [SG3199]; conditions: max 0.001 µM
In short: as §1

AZD1390 = compound: CC(C)n1c(=O)n(C)c2cnc3cc(F)c(-c4ccc(OCCCN5CCCCC5)nc4)cc3c21 [AZD1390]; conditions: max 0.3 µM
In short: as §1

Trametinib = compound: CC(=O)Nc1cccc(-n2c(=O)n(C3CC3)c(=O)c3c(Nc4ccc(I)cc4F)n(C)c(=O)c(C)c32)c1 [Trametinib]; conditions: max 1 µM
In short: as §1

Palbociclib = compound: CC(=O)c1c(C)c2cnc(Nc3ccc(N4CCNCC4)cn3)nc2n(C2CCCC2)c1=O [Palbociclib]; conditions: max 10 µM
In short: as §1

AZD8186 = compound: C[C@@H](Nc1cc(F)cc(F)c1)c1cc(C(=O)N(C)C)cc2c(=O)cc(N3CCOCC3)oc12 [AZD8186]; conditions: max 10 µM
In short: as §1

Carboplatin = compound: C1CC(C1)(C(=O)[O-])C(=O)[O-].N.N.[Pt+2] [Carboplatin]; conditions: max 10 µM
In short: as §1

AZD1775 = compound: C=CCn1c(=O)c2cnc(Nc3ccc(N4CCN(C)CC4)cc3)nc2n1-c1cccc(C(C)(C)O)n1 [AZD1775]; conditions: max 3 µM
In short: as §1

Olaparib = compound: O=C(c1cc(Cc2n[nH]c(=O)c3ccccc23)ccc1F)N1CCN(C(=O)C2CC2)CC1 [Olaparib]; conditions: max 10 µM
In short: as §1

Cell Line	IC50, cell viability 72 h (MK-2206) [µM]	IC50, cell viability 72 h (AZD2811) [µM]	IC50, cell viability 72 h (AZD5991) [µM]	IC50, cell viability 72 h (Gefitinib) [µM]	IC50, cell viability 72 h (AZD5153) [µM]	IC50, cell viability 72 h (SN-38) [µM]	IC50, cell viability 72 h (Lapatinib) [µM]	IC50, cell viability 72 h (Prexasertib) [µM]	IC50, cell viability 72 h (Doxorubicin) [µM]	IC50, cell viability 72 h (AZD7648) [µM]	IC50, cell viability 72 h [1] [µM]	IC50, cell viability 72 h (SRA737) [µM]	IC50, cell viability 72 h (Gemcitabine) [µM]	IC50, cell viability 72 h (5-Fluorouracil) [µM]	IC50, cell viability 72 h (Venetoclax) [µM]	IC50, cell viability 72 h (Dasatinib) [µM]	IC50, cell viability 72 h (Crizotinib) [µM]	IC50, cell viability 72 h (Paclitaxel) [µM]	IC50, cell viability 72 h (AZD6738) [µM]	IC50, cell viability 72 h (Taselisib) [µM]	IC50, cell viability 72 h (Etoposide) [µM]	IC50, cell viability 72 h (AZD4320) [µM]	IC50, cell viability 72 h (AZD0156) [µM]	IC50, cell viability 72 h (Savolitinib) [µM]	IC50, cell viability 72 h (Selumetinib) [µM]	IC50, cell viability 72 h (AZD5363) [µM]	IC50, cell viability 72 h (Alisertib) [µM]	IC50, cell viability 72 h (SG3199) [µM]	IC50, cell viability 72 h (AZD1390) [µM]	IC50, cell viability 72 h (Trametinib) [µM]	IC50, cell viability 72 h (Palbociclib) [µM]	IC50, cell viability 72 h (AZD8186) [µM]	IC50, cell viability 72 h (Carboplatin) [µM]	IC50, cell viability 72 h (AZD1775) [µM]	IC50, cell viability 72 h (Olaparib) [µM]
CAMA-1 (Breast Carcinoma)	> 10	> 1	> 1	> 10	> 1	> 0.3	> 10	> 1	> 1	> 10	> 5	> 10	> 0.3	> 20	> 1	> 2	> 10	0.112	> 10	> 10	> 10	> 1	> 3	> 1	> 10	4.86	> 10	> 0.001	> 0.3	> 1	> 10	7.76	> 10	> 3	> 10
DND-41 (T-Lymphoblastic Leukemia)	> 10	> 1	> 1	> 10	0.595	0.00288	7.51	0.00675	0.424	> 10	> 5	1.09	0.0954	> 20	0.546	> 2	4.77	> 3	1.5	> 10	0.763	0.0338	> 3	> 1	> 10	> 10	> 10	> 0.001	> 0.3	> 1	> 10	> 10	> 10	0.334	> 10
ES1 (Ewing's Sarcoma)	3.97	0.51	0.435	> 10	0.604	0.0031	> 10	0.0135	0.101	> 10	> 5	2	0.00261	9.22	> 1	> 2	2.48	< 0.003	1.73	1.05	0.335	> 1	> 3	> 1	> 10	> 10	2.37	> 0.001	> 0.3	> 1	2.17	8.67	> 10	0.784	4.47
